Here are results for three molecules from patent US8247441B2, “Chromene compounds, a process for their preparation and pharmaceutical compositions containing them” (Les Laboratoires Servier, priority 2009, dated 2012).

In assay [1] the target is human D2L dopaminergic receptor (Homo sapiens, UniProt P14416). As to the kind of experiment: Affinity for human D2L receptors stably expressed in CHO cells, [3H]-spiperone competition. It is filed as binding. The note with it: CHO cell membranes, 0.5 nM [3H]-spiperone, 1 hour at 30° C.; read-out: Affinity (pKi) hD2L (converted). How it is done: (§1) Determination of Affinity for Human D3, D2S and D2L Receptors Stably Expressed in CHO Cells
Sequence of human D2L dopaminergic receptor (P14416 whole entry): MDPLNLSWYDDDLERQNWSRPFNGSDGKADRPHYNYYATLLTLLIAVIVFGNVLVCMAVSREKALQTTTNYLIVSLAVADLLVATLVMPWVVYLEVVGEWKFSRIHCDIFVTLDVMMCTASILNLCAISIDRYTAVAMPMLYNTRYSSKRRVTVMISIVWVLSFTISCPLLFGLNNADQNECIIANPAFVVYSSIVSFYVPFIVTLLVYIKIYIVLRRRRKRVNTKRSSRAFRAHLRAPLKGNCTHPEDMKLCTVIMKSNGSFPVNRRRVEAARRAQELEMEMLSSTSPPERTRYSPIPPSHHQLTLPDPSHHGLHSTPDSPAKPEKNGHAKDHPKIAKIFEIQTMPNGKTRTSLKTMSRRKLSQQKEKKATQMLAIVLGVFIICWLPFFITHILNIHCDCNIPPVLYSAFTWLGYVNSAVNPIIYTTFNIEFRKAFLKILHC
(§2) The various cell lines are cultured to confluence and then the cells are detached and are homogenised using a Polytron in a Tris-HCl buffer (50 mM, pH 7.4) containing 5 mM MgCl2. The cell debris is then centrifuged (15 minutes at 4° C.) and the sediment is taken up in an appropriate volume of HEPES buffer (20 mM) containing 150 mM NaCl and is frozen at −80° C. On the day of the experiment, the membranes are taken up in incubation buffer containing 50 mM Tris (pH 7.4), 120 mM NaCl, 5 mM KCl, 2 mM CaCl2 and 5 mM MgCl2. […] The non-specific binding is determined using 10 μM raclopride. At the end of the incubation period, the samples are filtered through Unifilter GF/B type filters pre-treated with PEI (0.1%) and washed several times with Tris-HCl filtration buffer (50 mM, pH 7.4) containing 120 mM NaCl. The radioactivity retained on the filters is counted after addition of scintillation liquid, with the aid of a scintillation counter. […] The results are expressed in terms of pKi=−log Ki.

Assay [2] addresses human D3 dopaminergic receptor (Homo sapiens, UniProt P35462). As to the kind of experiment: Affinity for human D3 receptors stably expressed in CHO cells, [3H]-spiperone competition. It is filed as binding. The note with it: CHO cell membranes, 0.5 nM [3H]-spiperone, 1 hour at 30° C.; read-out: Affinity (pKi) hD3 (converted). As to the method:
as §1, §2

For assay [3], the target named is human D2S dopaminergic receptor (Homo sapiens, UniProt P14416). As to the kind of experiment: Affinity for human D2S receptors stably expressed in CHO cells, [3H]-spiperone competition. It is filed as binding. The settings on record: CHO cell membranes, 0.5 nM [3H]-spiperone, 1 hour at 30° C.; read-out: Affinity (pKi) hD2S (converted). How it is done: as §1, §2
Sequence of human D2S dopaminergic receptor (P14416 1-414 isoform P14416-2): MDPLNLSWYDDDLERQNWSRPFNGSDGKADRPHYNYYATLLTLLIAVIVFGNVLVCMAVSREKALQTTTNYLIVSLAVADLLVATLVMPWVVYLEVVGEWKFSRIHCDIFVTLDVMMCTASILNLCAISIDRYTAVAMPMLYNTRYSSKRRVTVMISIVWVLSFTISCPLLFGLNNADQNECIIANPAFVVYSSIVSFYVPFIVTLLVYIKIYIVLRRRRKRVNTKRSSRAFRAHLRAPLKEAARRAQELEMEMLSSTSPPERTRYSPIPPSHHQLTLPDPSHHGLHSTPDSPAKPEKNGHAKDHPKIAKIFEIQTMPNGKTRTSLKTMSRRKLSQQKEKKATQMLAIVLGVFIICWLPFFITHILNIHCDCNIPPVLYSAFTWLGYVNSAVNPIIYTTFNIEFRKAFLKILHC
Another assay concerns D3/D2 receptor. As to the kind of experiment: Inhibition of hypothermia induced by the dopaminergic agonist PD128,907. It is filed as in vivo, rat. The note with it: for Δ (° C.) ± S.E.M.s: PD128,907 0.63 mg/kg s.c. at T0, rectal temperature 30 min later vs baseline; for ID50 (Inhibitory Dose50): inhibition of hypothermia induced by PD128,907 0.63 mg/kg s.c. How it is done: Inhibition of Induction of Hypothermia Induced by the Dopaminergic Agonist PD128,907
In male rats of the Wistar strain, the baseline (rectal) temperature is measured and then the compound under test or the vehicle is administered by the oral route. Sixty minutes later, PD128,907 (0.63 mg/kg, s.c.), a D3/D2 dopaminergic agonist, is injected. Thirty minutes later, the body temperature is re-determined and the difference (Δ) from the baseline temperature is calculated.

The mark [4] stands for this setting: male Wistar rats, compound 0.04 mg/kg p.o. at T-60 min.
The mark [5] stands for this setting: male Wistar rats, compound 0.16 mg/kg p.o. at T-60 min.
[6] abbreviates: male Wistar rats, compound 0.63 mg/kg p.o. at T-60 min.
Where [7] appears, read: male Wistar rats, compound 2.5 mg/kg p.o. at T-60 min.
The mark [8] stands for this setting: male Wistar rats, compound 10.0 mg/kg p.o. at T-60 min.

Sequence of human D3 dopaminergic receptor (P35462 whole entry): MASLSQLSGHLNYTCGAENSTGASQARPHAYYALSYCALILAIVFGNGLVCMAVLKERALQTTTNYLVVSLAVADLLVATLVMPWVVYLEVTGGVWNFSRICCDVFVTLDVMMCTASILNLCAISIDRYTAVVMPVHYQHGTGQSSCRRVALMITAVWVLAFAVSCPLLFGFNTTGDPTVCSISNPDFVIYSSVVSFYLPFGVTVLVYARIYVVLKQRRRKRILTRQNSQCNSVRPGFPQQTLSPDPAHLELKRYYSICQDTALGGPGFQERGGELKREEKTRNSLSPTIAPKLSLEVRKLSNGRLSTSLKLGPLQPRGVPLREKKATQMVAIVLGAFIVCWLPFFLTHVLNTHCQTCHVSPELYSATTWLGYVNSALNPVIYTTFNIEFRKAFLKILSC

`CC(=O)N[C@H]1CC[C@H](CCN2C[C@H]3COc4ccc(C#N)cc4[C@@H]3C2)CC1.Cl` [Example 2, N-(trans-4-{2-[(3aS,9bR)-8-cyano-1,3a,4,9b-tetrahydrochromeno[3,4-c]pyrrol-2(3H)-yl]ethyl}cyclohexyl)acetamide hydrochloride]: the Ki was 100 nM in assay [1], 2 nM in assay [2] and 117 nM in assay [3]. Further, the “Δ (° C.) ± S.E.M.s” value in the assay on D3/D2 receptor (setting [4]) was −1.73 ± 0.26 °C; in the assay with D3/D2 receptor (setting [5]), −1.33 ± 0.11 °C; in the assay with D3/D2 receptor (setting [6]), −0.97 ± 0.28 °C; in the assay on D3/D2 receptor (setting [7]), −0.4 ± 0.13 °C; in the assay on D3/D2 receptor (setting [8]) it was “+0.1 ± 0.33 °C”. The “ID50 (Inhibitory Dose50)” value in the assay with D3/D2 receptor (male Wistar rats) is given as 1.33 mg/kg, p.o.
Consider `Cl.N#Cc1ccc2c(c1)[C@@H]1CN(CC[C@H]3CC[C@H](NC(=O)C4CCC4)CC3)C[C@H]1CO2` [Example 3, N-(trans-4-{2-[(3aS,9bR)-8-cyano-1,3a,4,9b-tetrahydrochromeno[3,4-c]pyrrol-2(3H)-yl]ethyl}cyclohexyl)cyclobutanecarboxamide hydrochloride], for which the Ki in assay [1] is 50.1 nM; in assay [2], 1.86 nM; in assay [3], 56.2 nM. The “Blocking of PD 128,907-induced hypothermia” value with D3/D2 receptor (male Wistar rats, oral route) is given as “blocked in dose-dependent manner”. In addition, the “Δ (° C.) ± S.E.M.s” value in the assay with D3/D2 receptor (setting [4]) was −1.65 ± 0.09 °C; in the assay with D3/D2 receptor (setting [5]) it was −1.62 ± 0.07 °C; with D3/D2 receptor (setting [6]), −0.83 ± 0.20 °C; with D3/D2 receptor (setting [7]), −0.33 ± 0.16 °C; in the assay on D3/D2 receptor (setting [8]), “+0.35 ± 0.18 °C”. The “ID50 (Inhibitory Dose50)” value in the assay on D3/D2 receptor (male Wistar rats) is listed as 0.64 mg/kg, p.o.
For `CCCN1CCO[C@@H]2c3cc(O)ccc3OC[C@H]21` [PD128,907, reference compound], the “Effect of PD 128,907 on body temperature” value with D3/D2 receptor (in the presence of the vehicle) is “brings about hypothermia”.
